Results taken from ChEMBL document CHEMBL4507300 (2021).
pKi: −log10 of the molar value.

How the values were obtained:
[1] = target: Serine/threonine-protein kinase N2 (Homo sapiens) (UniProt Q16513); conditions: Compound concentration 1000.0 nM
[2] = target: Calcium/calmodulin-dependent protein kinase kinase 1 (Homo sapiens) (UniProt Q8N5S9); conditions: Compound concentration 1000.0 nM
[3] = target: Focal adhesion kinase 1 (Homo sapiens) (UniProt Q05397); conditions: Compound concentration 1000.0 nM
[4] = target: D(1A) dopamine receptor (Homo sapiens) (UniProt P21728); conditions: Compound concentration 10.0 uM
[5] = target: Serine/threonine-protein kinase mTOR (Homo sapiens) (UniProt P42345); conditions: Compound concentration 1000.0 nM
[6] = target: Myotonin-protein kinase (Homo sapiens) (UniProt Q09013); conditions: Compound concentration 1000.0 nM
[7] = tested on: Tyrosine-protein kinase ABL1 (Homo sapiens), P00519 [T315I]; conditions: Compound concentration 1000.0 nM
[8] = tested on: Receptor-type tyrosine-protein kinase FLT3 (Homo sapiens), P36888 [UNDEFINED MUTATION]; conditions: Compound concentration 1000.0 nM
[9] = target: Alpha-1A adrenergic receptor (Homo sapiens) (UniProt P35348); conditions: Compound concentration 10.0 uM
[10] = target: Serine/threonine-protein kinase 10 (Homo sapiens) (UniProt O94804); conditions: Compound concentration 1000.0 nM
[11] = target: Serine/threonine-protein kinase WNK2 (Homo sapiens) (UniProt Q9Y3S1); conditions: Compound concentration 1000.0 nM
[12] = target: Phosphatidylinositol 4,5-bisphosphate 3-kinase catalytic subunit delta isoform (Homo sapiens) (UniProt O00329); conditions: Compound concentration 1000.0 nM
[13] = target: TGF-beta receptor type-2 (Homo sapiens) (UniProt P37173); conditions: Compound concentration 1000.0 nM
[14] = target: Misshapen-like kinase 1 (Homo sapiens) (UniProt Q8N4C8); conditions: Compound concentration 1000.0 nM
[15] = target: Muscle, skeletal receptor tyrosine-protein kinase (Homo sapiens) (UniProt O15146); conditions: Compound concentration 1000.0 nM
[16] = target: Cyclin-dependent kinase-like 3 (Homo sapiens) (UniProt Q8IVW4); conditions: Compound concentration 1000.0 nM
[17] = target: Mitogen-activated protein kinase 11 (Homo sapiens) (UniProt Q15759); conditions: Compound concentration 1000.0 nM
[18] = target: Receptor-interacting serine/threonine-protein kinase 1 (Homo sapiens) (UniProt Q13546); conditions: Compound concentration 1000.0 nM
[19] = tested on: Epidermal growth factor receptor (Homo sapiens), P00533 [L861Q]; conditions: Compound concentration 1000.0 nM
[20] = target: cGMP-dependent protein kinase 1 (Homo sapiens) (UniProt Q13976); conditions: Compound concentration 1000.0 nM
[21] = target: Fibroblast growth factor receptor 2 (Homo sapiens) (UniProt P21802); conditions: Compound concentration 1000.0 nM
[22] = target: Tyrosine-protein kinase Fgr (Homo sapiens) (UniProt P09769); conditions: Compound concentration 1000.0 nM
[23] = tested on: Phosphatidylinositol 4,5-bisphosphate 3-kinase catalytic subunit alpha isoform (Homo sapiens), P42336 [H1047L]; conditions: Compound concentration 1000.0 nM
[24] = tested on: Epidermal growth factor receptor (Homo sapiens), P00533 [L858R]; conditions: Compound concentration 1000.0 nM
[25] = target: Casein kinase I isoform gamma-3 (Homo sapiens) (UniProt Q9Y6M4); conditions: Compound concentration 1000.0 nM
[26] = target: Mitogen-activated protein kinase kinase kinase kinase 4 (Homo sapiens) (UniProt O95819); conditions: Compound concentration 1000.0 nM
[27] = target: Citron Rho-interacting kinase (Homo sapiens) (UniProt O14578); conditions: Compound concentration 1000.0 nM
[28] = target: Phosphatidylinositol 3-kinase C2 domain-containing subunit gamma (Homo sapiens) (UniProt O75747); conditions: Compound concentration 1000.0 nM
[29] = target: Vascular endothelial growth factor receptor 1 (Homo sapiens) (UniProt P17948); conditions: Compound concentration 1000.0 nM
[30] = target: Cyclin-G-associated kinase (Homo sapiens) (UniProt O14976); conditions: Compound concentration 1000.0 nM
[31] = target: Serine/threonine-protein kinase/endoribonuclease IRE1 (Homo sapiens) (UniProt O75460); conditions: Compound concentration 1000.0 nM
[32] = target: Ephrin type-A receptor 8 (Homo sapiens) (UniProt P29322); conditions: Compound concentration 1000.0 nM
[33] = target: MAP kinase-activated protein kinase 5 (Homo sapiens) (UniProt Q8IW41); conditions: Compound concentration 1000.0 nM
Histamine H1 receptor = Histamine H1 receptor (Homo sapiens, UniProt P35367); experiment: GPCRScan assay: inhibition of H1; design: radioligand conc. used [nm] 0.6 – 2.0, parental cells stable HEK
[34] = target: TGF-beta receptor type-1 (Homo sapiens) (UniProt P36897); conditions: Compound concentration 1000.0 nM
[35] = target: Mitogen-activated protein kinase kinase kinase 14 (Homo sapiens) (UniProt Q99558); conditions: Compound concentration 1000.0 nM
[36] = tested on: Tyrosine-protein kinase ABL1 (Homo sapiens), P00519 [Y253F]; conditions: Compound concentration 1000.0 nM
[37] = target: Platelet-derived growth factor receptor beta (Homo sapiens) (UniProt P09619); conditions: Compound concentration 1000.0 nM
[38] = target: Tyrosine-protein kinase Fes/Fps (Homo sapiens) (UniProt P07332); conditions: Compound concentration 1000.0 nM
[39] = target: Dual specificity mitogen-activated protein kinase kinase 5 (Homo sapiens) (UniProt Q13163); conditions: Compound concentration 1000.0 nM
[40] = target: Dual specificity mitogen-activated protein kinase kinase 4 (Homo sapiens) (UniProt P45985); conditions: Compound concentration 1000.0 nM
[41] = target: Atypical kinase COQ8A, mitochondrial (Homo sapiens) (UniProt Q8NI60); conditions: Compound concentration 1000.0 nM
[42] = target: 5-hydroxytryptamine receptor 3A (Homo sapiens) (UniProt P46098); conditions: Compound concentration 10.0 uM
[43] = target: Non-receptor tyrosine-protein kinase TYK2 (Homo sapiens) (UniProt P29597); conditions: Compound concentration 1000.0 nM
[44] = tested on: Mast/stem cell growth factor receptor Kit (Homo sapiens), P10721 [L576P]; conditions: Compound concentration 1000.0 nM

Sequence of Platelet-derived growth factor receptor beta (Homo sapiens) (P09619 whole entry): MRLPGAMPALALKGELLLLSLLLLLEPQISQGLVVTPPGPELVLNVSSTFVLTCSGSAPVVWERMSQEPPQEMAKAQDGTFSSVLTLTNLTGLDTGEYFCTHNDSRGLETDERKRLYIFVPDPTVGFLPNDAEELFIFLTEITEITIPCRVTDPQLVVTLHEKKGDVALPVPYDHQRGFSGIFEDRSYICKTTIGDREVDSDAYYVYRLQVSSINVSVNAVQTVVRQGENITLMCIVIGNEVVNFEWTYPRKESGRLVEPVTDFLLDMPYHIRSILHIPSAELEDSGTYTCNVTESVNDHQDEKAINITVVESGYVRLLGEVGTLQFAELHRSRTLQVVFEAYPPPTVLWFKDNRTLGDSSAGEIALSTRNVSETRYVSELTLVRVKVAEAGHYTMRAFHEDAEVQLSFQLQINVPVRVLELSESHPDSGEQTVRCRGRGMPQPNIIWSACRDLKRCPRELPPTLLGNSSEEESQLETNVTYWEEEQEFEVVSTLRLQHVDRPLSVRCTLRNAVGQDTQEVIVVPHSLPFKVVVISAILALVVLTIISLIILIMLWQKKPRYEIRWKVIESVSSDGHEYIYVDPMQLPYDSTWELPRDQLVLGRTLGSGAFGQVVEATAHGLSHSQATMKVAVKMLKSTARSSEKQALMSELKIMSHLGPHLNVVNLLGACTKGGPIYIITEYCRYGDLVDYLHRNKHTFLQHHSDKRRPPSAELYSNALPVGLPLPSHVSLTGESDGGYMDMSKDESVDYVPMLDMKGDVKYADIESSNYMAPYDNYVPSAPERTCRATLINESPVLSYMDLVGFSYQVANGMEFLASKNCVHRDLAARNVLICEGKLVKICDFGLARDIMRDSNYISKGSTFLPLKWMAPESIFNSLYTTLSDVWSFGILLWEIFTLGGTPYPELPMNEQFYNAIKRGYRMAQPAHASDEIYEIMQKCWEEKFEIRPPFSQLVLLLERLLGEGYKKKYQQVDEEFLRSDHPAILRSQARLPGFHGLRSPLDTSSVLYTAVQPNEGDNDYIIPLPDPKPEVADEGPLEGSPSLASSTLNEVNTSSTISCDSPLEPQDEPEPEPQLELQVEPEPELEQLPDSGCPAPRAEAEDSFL
Sequence of Mitogen-activated protein kinase kinase kinase 14 (Homo sapiens) (Q99558 whole entry, looked up): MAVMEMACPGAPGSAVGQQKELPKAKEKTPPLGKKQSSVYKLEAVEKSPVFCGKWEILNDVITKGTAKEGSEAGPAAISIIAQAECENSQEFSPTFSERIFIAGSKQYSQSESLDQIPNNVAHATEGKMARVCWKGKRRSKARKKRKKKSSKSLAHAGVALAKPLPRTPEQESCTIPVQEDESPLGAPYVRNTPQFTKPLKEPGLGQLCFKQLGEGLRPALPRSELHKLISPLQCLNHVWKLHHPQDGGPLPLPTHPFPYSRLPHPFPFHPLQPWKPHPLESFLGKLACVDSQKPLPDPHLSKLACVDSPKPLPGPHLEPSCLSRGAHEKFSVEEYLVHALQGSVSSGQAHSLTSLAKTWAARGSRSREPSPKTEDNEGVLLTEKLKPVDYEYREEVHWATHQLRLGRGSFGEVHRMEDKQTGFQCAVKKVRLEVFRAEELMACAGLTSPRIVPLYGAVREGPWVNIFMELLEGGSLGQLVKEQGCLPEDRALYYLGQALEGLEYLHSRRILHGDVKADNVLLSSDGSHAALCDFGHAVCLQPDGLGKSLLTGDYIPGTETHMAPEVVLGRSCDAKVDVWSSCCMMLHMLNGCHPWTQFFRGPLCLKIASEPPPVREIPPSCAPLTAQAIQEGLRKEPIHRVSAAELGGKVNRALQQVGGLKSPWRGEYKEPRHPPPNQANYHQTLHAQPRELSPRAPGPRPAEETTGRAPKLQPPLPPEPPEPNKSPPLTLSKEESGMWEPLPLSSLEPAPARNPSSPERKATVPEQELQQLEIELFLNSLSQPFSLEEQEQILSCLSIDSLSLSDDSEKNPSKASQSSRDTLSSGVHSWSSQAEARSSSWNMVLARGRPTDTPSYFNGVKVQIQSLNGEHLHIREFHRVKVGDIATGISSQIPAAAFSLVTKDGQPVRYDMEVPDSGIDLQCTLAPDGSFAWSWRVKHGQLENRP
Sequence of Cyclin-G-associated kinase (Homo sapiens) (O14976 whole entry): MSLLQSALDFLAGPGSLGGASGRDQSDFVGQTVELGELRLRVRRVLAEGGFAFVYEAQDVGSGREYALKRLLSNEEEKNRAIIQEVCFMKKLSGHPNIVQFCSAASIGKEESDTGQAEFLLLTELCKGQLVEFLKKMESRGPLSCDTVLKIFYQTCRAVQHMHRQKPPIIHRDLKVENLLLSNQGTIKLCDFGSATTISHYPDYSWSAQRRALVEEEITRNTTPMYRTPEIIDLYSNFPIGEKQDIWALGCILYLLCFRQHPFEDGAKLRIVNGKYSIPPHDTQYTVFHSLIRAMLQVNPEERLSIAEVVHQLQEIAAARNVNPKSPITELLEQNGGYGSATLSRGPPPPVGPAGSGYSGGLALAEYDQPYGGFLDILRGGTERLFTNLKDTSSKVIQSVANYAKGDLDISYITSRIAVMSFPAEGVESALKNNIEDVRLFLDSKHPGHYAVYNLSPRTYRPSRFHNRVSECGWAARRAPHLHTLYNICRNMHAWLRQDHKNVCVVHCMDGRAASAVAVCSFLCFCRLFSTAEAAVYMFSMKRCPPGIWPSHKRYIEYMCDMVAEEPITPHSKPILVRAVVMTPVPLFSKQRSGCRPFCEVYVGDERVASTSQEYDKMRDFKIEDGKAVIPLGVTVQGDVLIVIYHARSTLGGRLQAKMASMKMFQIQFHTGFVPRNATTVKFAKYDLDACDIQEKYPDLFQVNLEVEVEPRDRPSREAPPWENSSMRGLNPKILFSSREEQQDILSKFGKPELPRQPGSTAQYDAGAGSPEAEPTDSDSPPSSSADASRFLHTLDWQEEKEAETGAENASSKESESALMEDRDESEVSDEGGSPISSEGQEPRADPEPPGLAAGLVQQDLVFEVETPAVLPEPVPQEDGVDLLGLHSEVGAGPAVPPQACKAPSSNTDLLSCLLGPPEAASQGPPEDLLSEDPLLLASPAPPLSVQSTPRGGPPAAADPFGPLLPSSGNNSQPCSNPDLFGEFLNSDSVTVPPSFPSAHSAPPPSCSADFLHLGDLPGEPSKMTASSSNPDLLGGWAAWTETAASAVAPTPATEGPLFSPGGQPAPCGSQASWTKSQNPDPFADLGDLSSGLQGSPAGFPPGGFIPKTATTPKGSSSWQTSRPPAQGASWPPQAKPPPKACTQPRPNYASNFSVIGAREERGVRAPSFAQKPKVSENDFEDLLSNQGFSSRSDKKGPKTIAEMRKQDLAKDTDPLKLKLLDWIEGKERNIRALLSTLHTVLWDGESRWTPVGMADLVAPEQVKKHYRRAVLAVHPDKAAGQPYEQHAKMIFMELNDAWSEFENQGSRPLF
Sequence of D(1A) dopamine receptor (Homo sapiens) (P21728 whole entry): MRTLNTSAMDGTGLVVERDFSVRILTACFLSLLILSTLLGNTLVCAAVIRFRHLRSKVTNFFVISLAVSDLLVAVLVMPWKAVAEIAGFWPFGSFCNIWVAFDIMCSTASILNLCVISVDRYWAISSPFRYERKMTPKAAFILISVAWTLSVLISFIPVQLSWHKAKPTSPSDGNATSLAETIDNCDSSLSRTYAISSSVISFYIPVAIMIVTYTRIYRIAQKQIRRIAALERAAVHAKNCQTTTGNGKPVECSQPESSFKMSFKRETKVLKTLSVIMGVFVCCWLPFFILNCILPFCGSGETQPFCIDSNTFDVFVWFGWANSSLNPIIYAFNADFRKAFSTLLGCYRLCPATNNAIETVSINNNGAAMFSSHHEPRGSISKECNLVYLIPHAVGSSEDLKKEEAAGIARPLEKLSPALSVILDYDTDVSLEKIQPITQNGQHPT
Sequence of Serine/threonine-protein kinase N2 (Homo sapiens) (Q16513 whole entry, looked up): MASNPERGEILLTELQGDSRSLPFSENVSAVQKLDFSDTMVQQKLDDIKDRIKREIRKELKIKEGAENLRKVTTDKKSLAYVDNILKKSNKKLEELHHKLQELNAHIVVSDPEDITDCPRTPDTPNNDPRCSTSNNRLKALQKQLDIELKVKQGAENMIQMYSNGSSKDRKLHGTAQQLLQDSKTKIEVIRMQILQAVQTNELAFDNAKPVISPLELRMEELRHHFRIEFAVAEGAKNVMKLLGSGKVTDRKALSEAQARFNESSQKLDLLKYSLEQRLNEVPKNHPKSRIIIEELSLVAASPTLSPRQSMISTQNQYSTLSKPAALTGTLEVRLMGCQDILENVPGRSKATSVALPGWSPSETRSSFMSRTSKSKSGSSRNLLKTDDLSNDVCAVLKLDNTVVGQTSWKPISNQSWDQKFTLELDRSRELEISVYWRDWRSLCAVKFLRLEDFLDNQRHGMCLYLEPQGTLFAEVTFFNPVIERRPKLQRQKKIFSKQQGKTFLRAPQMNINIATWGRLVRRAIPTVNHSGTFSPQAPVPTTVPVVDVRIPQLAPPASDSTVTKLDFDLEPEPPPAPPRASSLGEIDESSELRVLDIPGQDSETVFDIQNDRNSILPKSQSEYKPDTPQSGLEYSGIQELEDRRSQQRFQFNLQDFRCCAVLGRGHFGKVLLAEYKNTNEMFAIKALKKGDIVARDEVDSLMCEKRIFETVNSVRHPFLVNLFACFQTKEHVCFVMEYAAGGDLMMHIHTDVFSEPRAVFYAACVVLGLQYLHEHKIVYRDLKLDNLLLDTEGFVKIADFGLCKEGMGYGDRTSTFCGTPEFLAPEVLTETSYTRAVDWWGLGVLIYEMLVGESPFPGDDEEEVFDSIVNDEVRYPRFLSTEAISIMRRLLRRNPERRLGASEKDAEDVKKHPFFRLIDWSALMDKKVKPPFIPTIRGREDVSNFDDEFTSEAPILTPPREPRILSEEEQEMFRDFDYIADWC

COc1cccc(CNC(=O)c2nc3scc(COCc4ccc(C(=O)O)cc4)c3c(=O)[nH]2)c1 [T-26c]
residual activity [1]: 98%
residual activity [2]: 100%
residual activity [3]: 100%
inhibition [4]: -6.24%
residual activity [5]: 100%
residual activity [6]: 85.4%
residual activity [7]: 92%
residual activity [8]: 93.7%
inhibition [9]: -1.51%
residual activity [10]: 67.8%
residual activity [11]: 54.2%
residual activity [12]: 85.7%
residual activity [13]: 97%
residual activity [14]: 74.9%
residual activity [15]: 100%
residual activity [16]: 100%
residual activity [17]: 100%
residual activity [18]: 97.4%
residual activity [19]: 77.8%
residual activity [20]: 100%
residual activity [21]: 100%
residual activity [22]: 90%
residual activity [23]: 100%
residual activity [24]: 88.3%
residual activity [25]: 96.6%
residual activity [26]: 92.3%
residual activity [27]: 100%
residual activity [28]: 100%
residual activity [29]: 93.9%
residual activity [30]: 99.6%
residual activity [31]: 89.7%
residual activity [32]: 82.5%
residual activity [33]: 93.8%
pKi (Histamine H1 receptor): 7.01
residual activity [34]: 83.2%
residual activity [35]: 100%
residual activity [36]: 84.6%
residual activity [37]: 99%
residual activity [38]: 94.5%
residual activity [39]: 100%
residual activity [40]: 59.7%
residual activity [41]: 100%
inhibition [42]: 6.87%
residual activity [43]: 79.8%
residual activity [44]: 100%
